# Tests used:
# [1] = tested on: Beet Armyworm (Spodoptera exigua); assay: Bioassay on Beet Armyworm (BAW), 128-well diet tray assay; assay type: in vivo; conditions: Beet Armyworm, Table ABC, read-out: BAW rating
# In short: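 Second-instar larvae (one to five per well) placed on artificial diet surface-treated with 50 μg/cm^2 test molecule in 90:10 acetone-water, dried, eight wells per molecule. Held at 25° C, 14:10 light-dark, five to seven days; percent mortality recorded per well and averaged across the eight wells.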
# [2] = tested on: Cabbage Looper (Trichoplusia ni); assay: Bioassay on Cabbage Looper (CL), 128-well diet tray assay; assay type: in vivo; conditions: Cabbage Looper, Table ABC, read-out: CL rating
# In short: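 Second-instar larvae, one to five per well, placed on artificial diet surface-treated with 50 μg/cm^2 compound in acetone-water, eight wells per compound. Held 5-7 days at 25° C, 14:10 light-dark; percent mortality per well averaged across wells.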
SMILES,pest or weed control at 50 µg/cm2 [1] [%],pest or weed control at 50 µg/cm2 [2] [%]
"O=C(NC1(C(=O)NCCC(F)(F)F)CC1)c1ccc(/C(F)=C/C(c2cc(Cl)c(Cl)c(Cl)c2)C(F)(F)F)cc1C(F)(F)F (stereo not drawn) [F90, (Z)-4-(1,4,4,4-Tetrafluoro-3-(3,4,5-trichlorophenyl)but-1-en-1-yl)-2-(trifluoromethyl)-N-(1-((3,3,3-trifluoropropyl)carbamoyl)cyclopropyl)benzamide]",50 to 100,50 to 100
"CC(C)CCNC(=O)C1(NC(=O)c2ccc(/C(F)=C/C(c3cc(Cl)c(Cl)c(Cl)c3)C(F)(F)F)cc2C(F)(F)F)CC1 (stereo not drawn) [F91, (Z)—N-(1-(Isopentylcarbamoyl)cyclopropyl)-4-(1,4,4,4-tetrafluoro-3-(3,4,5-trichlorophenyl)but-1-en-1-yl)-2-(trifluoromethyl)benzamide]",50 to 100,50 to 100
"CC(F)(F)CNC(=O)C1(NC(=O)c2ccc(/C(F)=C/C(c3cc(Cl)c(Cl)c(Cl)c3)C(F)(F)F)cc2C(F)(F)F)CC1 (stereo not drawn) [F92, (Z)—N-(1-((2,2-Difluoropropyl)carbamoyl)cyclopropyl)-4-(1,4,4,4-tetrafluoro-3-(3,4,5-trichlorophenyl)but-1-en-1-yl)-2-(trifluoromethyl)benzamide]",50 to 100,50 to 100
"O=C(NC1(C(=O)NCC2CCC2)CC1)c1ccc(/C(F)=C/C(c2cc(Cl)c(Cl)c(Cl)c2)C(F)(F)F)cc1C(F)(F)F (stereo not drawn) [F93, (Z)—N-(1-((Cyclobutylmethyl)carbamoyl)cyclopropyl)-4-(1,4,4,4-tetrafluoro-3-(3,4,5-trichlorophenyl)but-1-en-1-yl)-2-(trifluoromethyl)benzamide]",50 to 100,50 to 100
"C#CCNC(=O)C1(NC(=O)c2ccc(/C(F)=C/C(c3cc(Cl)c(Cl)c(Cl)c3)C(F)(F)F)cc2C(F)(F)F)CC1 (stereo not drawn) [F94, (Z)—N-(1-(Prop-2-yn-1-ylcarbamoyl)cyclopropyl)-4-(1,4,4,4-tetrafluoro-3-(3,4,5-trichlorophenyl)but-1-en-1-yl)-2-(trifluoromethyl)benzamide]",50 to 100,50 to 100
"O=C(NC1(C(=O)NCC(F)F)CC1)c1ccc(/C(F)=C/C(c2cc(Cl)c(Cl)c(Cl)c2)C(F)(F)F)cc1C(F)(F)F (stereo not drawn) [F95, (Z)—N-(1-((2,2-Difluoroethyl)carbamoyl)cyclopropyl)-4-(1,4,4,4-tetrafluoro-3-(3,4,5-trichlorophenyl)but-1-en-1-yl)-2-(trifluoromethyl)benzamide]",50 to 100,50 to 100
"CN(CC(F)(F)F)C(=O)C1(NC(=O)c2ccc(/C(F)=C/C(c3cc(Cl)c(Cl)c(Cl)c3)C(F)(F)F)cc2C(F)(F)F)CC1 (stereo not drawn) [F96, (Z)—N-(1-(Methyl(2,2,2-trifluoroethyl)carbamoyl)cyclopropyl)-4-(1,4,4,4-tetrafluoro-3-(3,4,5-trichlorophenyl)but-1-en-1-yl)-2-(trifluoromethyl)benzamide]",50 to 100,50 to 100
"CN(CC(F)(F)F)C(=O)C1(NC(=O)c2ccc(/C(F)=C/C(c3cc(Cl)c(Cl)c(Cl)c3)C(F)(F)F)cc2Cl)CC1 (stereo not drawn) [F97, (Z)-2-Chloro-N-(1-(methyl(2,2,2-trifluoroethyl)carbamoyl)cyclopropyl)-4-(1,4,4,4-tetrafluoro-3-(3,4,5-trichlorophenyl)but-1-en-1-yl)benzamide]",50 to 100,50 to 100
"CC[C@@H](NC(=O)c1ccc(/C(F)=C/C(c2cc(Cl)c(Cl)c(Cl)c2)C(F)(F)F)cc1C(F)(F)F)C(=O)NCC(F)(F)F (stereo partly drawn) [F98, N—((R)-1-Oxo-1-((2,2,2-trifluoroethyl)amino)butan-2-yl)-4-((Z)-1,4,4,4-tetrafluoro-3-(3,4,5-trichlorophenyl)but-1-en-1-yl)-2-(trifluoromethyl)benzamide]",50 to 100,50 to 100
"CC[C@@H](NC(=O)c1ccc(/C(F)=C/C(c2cc(Cl)c(Cl)c(Cl)c2)C(F)(F)F)cc1Cl)C(=O)NCC(F)(F)F (stereo partly drawn) [F100, 2-Chloro-N—((R)-1-oxo-1-((2,2,2-trifluoroethyl)amino)butan-2-yl)-4-((Z)-1,4,4,4-tetrafluoro-3-(3,4,5-trichlorophenyl)but-1-en-1-yl)benzamide]",50 to 100,50 to 100
"O=C(NC1(C(=O)NC2CC(F)(F)C2)CC1)c1ccc(/C(F)=C/C(c2cc(Cl)c(Cl)c(Cl)c2)C(F)(F)F)cc1C(F)(F)F (stereo not drawn) [F101, (Z)—N-(1-((3,3-Difluorocyclobutyl)carbamoyl)cyclopropyl)-4-(1,4,4,4-tetrafluoro-3-(3,4,5-trichlorophenyl)but-1-en-1-yl)-2-(trifluoromethyl)benzamide]",50 to 100,50 to 100
"O=C(NC1CCCN(CC(F)(F)F)C1=O)c1ccc(/C(F)=C/C(c2cc(Cl)c(Cl)c(Cl)c2)C(F)(F)F)cc1C(F)(F)F (stereo not drawn) [F104, (Z)—N-(2-Oxo-1-(2,2,2-trifluoroethyl)piperidin-3-yl)-4-(1,4,4,4-tetrafluoro-3-(3,4,5-trichlorophenyl)but-1-en-1-yl)-2-(trifluoromethyl)benzamide]",50 to 100,50 to 100
"C[C@@H](NC(=O)c1ccc(/C(F)=C/C(c2cc(Cl)cc(Cl)c2)C(F)(F)F)cc1C(F)(F)F)C(=O)NCC(F)(F)F (stereo partly drawn) [F105, 4-((Z)-3-(3,5-Dichlorophenyl)-1,4,4,4-tetrafluorobut-1-en-1-yl)-N—((R)-1-oxo-1-((2,2,2-trifluoroethyl)amino)propan-2-yl)-2-(trifluoromethyl)benzamide]",50 to 100,50 to 100
"O=C(N[C@@H]1CON(CC(F)(F)F)C1=O)c1ccc(/C(F)=C/C(c2cc(Cl)c(Cl)c(Cl)c2)C(F)(F)F)cc1C(F)(F)F (stereo partly drawn) [F106, N—((R)-3-Oxo-2-(2,2,2-trifluoroethyl)isoxazolidin-4-yl)-4-((Z)-1,4,4,4-tetrafluoro-3-(3,4,5-trichlorophenyl)but-1-en-1-yl)-2-(trifluoromethyl)benzamide]",50 to 100,50 to 100
"O=C(CNC(=O)c1ccc(/C(F)=C/C(c2ccc(Br)c(Br)c2)C(F)(F)F)cc1C(F)(F)F)NCC(F)(F)F (stereo not drawn) [F107, (Z)-4-(3-(3,4-Dibromophenyl)-1,4,4,4-tetrafluorobut-1-en-1-yl)-N-(2-oxo-2-((2,2,2-trifluoroethyl)amino)ethyl)-2-(trifluoromethyl)benzamide]",50 to 100,50 to 100
"CN(CC(F)(F)F)C(=O)C1(NC(=O)c2ccc(/C(F)=C/C(c3cc(Br)cc(Br)c3)C(F)(F)F)cc2C(F)(F)F)CC1 (stereo not drawn) [F108, (Z)-4-(3-(3,5-Dibromophenyl)-1,4,4,4-tetrafluorobut-1-en-1-yl)-N-(1-(methyl(2,2,2-trifluoroethyl)carbamoyl)cyclopropyl)-2-(trifluoromethyl)benzamide]",50 to 100,50 to 100
C[C@@H](NC(=O)c1ccc(/C(F)=C/C(c2cc(Cl)cc(Br)c2)C(F)(F)F)cc1C(F)(F)F)C(=O)NCC(F)(F)F (stereo partly drawn) [F109],50 to 100,50 to 100
O=C(CNC(=O)c1ccc(/C(F)=C/C(c2cc(Cl)c(Br)c(Cl)c2)C(F)(F)F)cc1C(F)(F)F)NCC(F)(F)F (stereo not drawn) [F110],50 to 100,50 to 100
"C=Cc1c(Cl)cc(C(/C=C(\F)c2ccc(C(=O)NC3(C(=O)N(C)CC(F)(F)F)CC3)c(C(F)(F)F)c2)C(F)(F)F)cc1Cl (stereo not drawn) [F111, (Z)-4-(3-(3,5-Dichloro-4-vinylphenyl)-1,4,4,4-tetrafluorobut-1-en-1-yl)-N-(1-(methyl(2,2,2-trifluoroethyl)carbamoyl)cyclopropyl)-2-(trifluoromethyl)benzamide]",50 to 100,50 to 100
"C[C@@H](NC(=O)c1ccc(/C(F)=C/C(c2ccc(Cl)c(Cl)c2)C(C)(F)F)cc1C(F)(F)F)C(=O)NCC(F)(F)F (stereo partly drawn) [F112, 4-((Z)-3-(3,4-Dichlorophenyl)-1,4,4-trifluoropent-1-en-1-yl)-N—((R)-1-oxo-1-((2,2,2-trifluoroethyl)amino)propan-2-yl)-2-(trifluoromethyl)benzamide]",50 to 100,50 to 100
"CN(CC(F)(F)F)C(=O)C1(NC(=O)c2ccc(/C(F)=C/C(c3cc(Cl)c(Br)c(Cl)c3)C(F)(F)F)cc2C(F)(F)F)CC1 (stereo not drawn) [F117, (Z)-4-(3-(4-Bromo-3,5-dichlorophenyl)-1,4,4,4-tetrafluorobut-1-en-1-yl)-N-(1-(methyl(2,2,2-trifluoroethyl)carbamoyl)cyclopropyl)-2-(trifluoromethyl)benzamide]",50 to 100,50 to 100
"C[C@@H](NC(=O)c1ccc(/C(F)=C/C(c2ccc(Cl)c(Cl)c2)C(F)(F)F)cc1Br)C(=O)NCC(F)(F)F (stereo partly drawn) [F123, 2-Bromo-4-((Z)-3-(3,4-dichlorophenyl)-1,4,4,4-tetrafluorobut-1-en-1-yl)-N—((R)-1-oxo-1-((2,2,2-trifluoroethyl)amino)propan-2-yl)benzamide]",50 to 100,50 to 100
"O=C(CNC(=O)c1ccc(/C(F)=C/C(c2ccc(Cl)c(Cl)c2)C(F)(F)F)cc1Br)NCC(F)(F)F (stereo not drawn) [F124, (Z)-2-Bromo-4-(3-(3,4-dichlorophenyl)-1,4,4,4-tetrafluorobut-1-en-1-yl)-N-(2-oxo-2-((2,2,2-trifluoroethyl)amino)ethyl)benzamide]",50 to 100,50 to 100
"O=C(NC1(C(=O)NCC(F)(F)F)CC1)c1ccc(/C(F)=C/C(c2ccc(Cl)c(Cl)c2)C(F)(F)F)cc1Br (stereo not drawn) [F125, (Z)-2-Bromo-4-(3-(3,4-dichlorophenyl)-1,4,4,4-tetrafluorobut-1-en-1-yl)-N-(1-((2,2,2-trifluoroethyl)carbamoyl)cyclopropyl)benzamide]",50 to 100,50 to 100

# — patent US10251394B2, “Molecules having pesticidal utility, and intermediates, compositions, and processes, related thereto” (Dow AgroSciences LLC, priority 2016, dated 2019)
